According to patent publication US10835531B1, “Methods for predicting drug responsiveness in cancer patients” (Oncology Venture ApS, priority 2019, dated 2020):

What was measured:
NCl-H322M = assay: NCI60 panel growth inhibition; format: cell-based; details: Homo sapiens; NCl-H322M cell line
Description: (§1) The human tumor cell lines of the cancer screening panel may be grown in RPMI 1640 medium containing 5% fetal bovine serum and 2 mM L-glutamine. Cells may be inoculated into 96 well microtiter plates in 100 μL at plating densities ranging from 5,000 to 40,000 cells/well depending on the doubling time of individual cell lines. After cell inoculation, the microtiter plates may be incubated at 37° C., 5% CO2, 95% air and 100% relative humidity for 24 hours prior to addition of experimental compounds. After 24 hours, two plates of each cell line may be fixed in situ with TCA, to represent a measurement of the cell population for each cell line at the time of compound addition (Tz). Experimental compounds may be solubilized in dimethyl sulfoxide at 400-fold the desired final maximum test concentration and stored frozen prior to use. At the time of compound (e.g., dovitinib or a pharmaceutically acceptable salt thereof) addition, an aliquot of frozen concentrate may be thawed and diluted to twice the desired final maximum test concentration with complete medium containing 50 μg/ml Gentamicin. Additional four, 10-fold or ½ log serial dilutions are made to provide a total of five concentrations plus control. […] Following compound (e.g., dovitinib or a pharmaceutically acceptable salt thereof) addition, the plates may be incubated for an additional 48 h at 37° C., 5% CO2, 95% air, and 100% relative humidity. For adherent cells, the assay may be terminated by the addition of cold TCA. Cells may be fixed in situ by the gentle addition of 50 μl of cold 50% (w/v) TCA (final concentration, 10% TCA) and incubated for 60 minutes at 4° C. The supernatant may be discarded, and the plates may be washed five times with tap water and air-dried. Sulforhodamine B (SRB) solution (100 μl) at 0.4% (w/v) in 1% acetic acid may be added to each well, and plates are incubated for 10 minutes at room temperature. After staining, unbound dye may be removed by washing five times with 1% acetic acid and the plates may be air-dried. […] Values are calculated for each of these three parameters if the level of activity is reached; however, if the effect is not reached or is exceeded, the value for that parameter is expressed as greater or less than the maximum or minimum concentration tested.

IGROV1 = assay: NCI60 panel growth inhibition; format: cell-based; details: Homo sapiens, IGROV-1; IGROV1 cell line
Description: as §1

UACC-257 = assay: NCI60 panel growth inhibition; format: cell-based; details: Homo sapiens; UACC-257 cell line
Description: as §1

K-562 = assay: NCI60 panel growth inhibition; format: cell-based; details: Homo sapiens, K562; K-562 cell line
Description: as §1

DU-145 = assay: NCI60 panel growth inhibition; format: cell-based; details: Homo sapiens; DU-145 cell line
Description: as §1

786-0 = assay: NCI60 panel growth inhibition; format: cell-based; details: Homo sapiens; 786-0 cell line
Description: as §1

CCRF-CEM = assay: NCI60 panel growth inhibition; format: cell-based; details: Homo sapiens; CCRF-CEM cell line
Description: as §1

LOX IMVI = assay: NCI60 panel growth inhibition; format: cell-based; details: Homo sapiens; LOX IMVI cell line
Description: as §1

RPMI-8226 = assay: NCI60 panel growth inhibition; format: cell-based; details: Homo sapiens; RPMI-8226 cell line
Description: as §1

SK-MEL-28 = assay: NCI60 panel growth inhibition; format: cell-based; details: Homo sapiens; SK-MEL-28 cell line
Description: as §1

NCl-H522 = assay: NCI60 panel growth inhibition; format: cell-based; details: Homo sapiens; NCl-H522 cell line
Description: as §1

SNB-75 = assay: NCI60 panel growth inhibition; format: cell-based; details: Homo sapiens; SNB-75 cell line
Description: as §1

UACC-62 = assay: NCI60 panel growth inhibition; format: cell-based; details: Homo sapiens; UACC-62 cell line
Description: as §1

SK-MEL-2 = assay: NCI60 panel growth inhibition; format: cell-based; details: Homo sapiens; SK-MEL-2 cell line
Description: as §1

MDA-MB-435 = assay: NCI60 panel growth inhibition; format: cell-based; details: Homo sapiens; MDA-MB-435 cell line
Description: as §1

HCT-116 = assay: NCI60 panel growth inhibition; format: cell-based; details: Homo sapiens; HCT-116 cell line
Description: as §1

RXF 393 = assay: NCI60 panel growth inhibition; format: cell-based; details: Homo sapiens; RXF 393 cell line
Description: as §1

U251 = assay: NCI60 panel growth inhibition; format: cell-based; details: Homo sapiens, U-251; U251 cell line
Description: as §1

CAKI-1 = assay: NCI60 panel growth inhibition; format: cell-based; details: Homo sapiens; CAKI-1 cell line
Description: as §1

NCl-H226 = assay: NCI60 panel growth inhibition; format: cell-based; details: Homo sapiens; NCl-H226 cell line
Description: as §1

ACHN = assay: NCI60 panel growth inhibition; format: cell-based; details: Homo sapiens; ACHN cell line
Description: as §1

KM12 = assay: NCI60 panel growth inhibition; format: cell-based; details: Homo sapiens; KM12 cell line
Description: as §1

HT29 = assay: NCI60 panel growth inhibition; format: cell-based; details: Homo sapiens, HT-29; HT29 cell line
Description: as §1

SK-MEL-5 = assay: NCI60 panel growth inhibition; format: cell-based; details: Homo sapiens; SK-MEL-5 cell line
Description: as §1

SR = assay: NCI60 panel growth inhibition; format: cell-based; details: Homo sapiens; SR cell line
Description: as §1

TK-10 = assay: NCI60 panel growth inhibition; format: cell-based; details: Homo sapiens; TK-10 cell line
Description: as §1

M14 = assay: NCI60 panel growth inhibition; format: cell-based; details: Homo sapiens; M14 cell line
Description: as §1

OVCAR-3 = assay: NCI60 panel growth inhibition; format: cell-based; details: Homo sapiens; OVCAR-3 cell line
Description: as §1

COLO 205 = assay: NCI60 panel growth inhibition; format: cell-based; details: Homo sapiens; COLO 205 cell line
Description: as §1

A498 = assay: NCI60 panel growth inhibition; format: cell-based; details: Homo sapiens; A498 cell line
Description: as §1

T-47D = assay: NCI60 panel growth inhibition; format: cell-based; details: Homo sapiens, T47D; T-47D cell line
Description: as §1

HCC-2998 = assay: NCI60 panel growth inhibition; format: cell-based; details: Homo sapiens; HCC-2998 cell line
Description: as §1

BT-549 = assay: NCI60 panel growth inhibition; format: cell-based; details: Homo sapiens; BT-549 cell line
Description: as §1

UO-31 = assay: NCI60 panel growth inhibition; format: cell-based; details: Homo sapiens; UO-31 cell line
Description: as §1

OVCAR-4 = assay: NCI60 panel growth inhibition; format: cell-based; details: Homo sapiens; OVCAR-4 cell line
Description: as §1

SNB-19 = assay: NCI60 panel growth inhibition; format: cell-based; details: Homo sapiens; SNB-19 cell line
Description: as §1

PC-3 = assay: NCI60 panel growth inhibition; format: cell-based; details: Homo sapiens; PC-3 cell line
Description: as §1

MDA-MB-468 = assay: NCI60 panel growth inhibition; format: cell-based; details: Homo sapiens; MDA-MB-468 cell line
Description: as §1

EKVX = assay: NCI60 panel growth inhibition; format: cell-based; details: Homo sapiens; EKVX cell line
Description: as §1

NCl-H23 = assay: NCI60 panel growth inhibition; format: cell-based; details: Homo sapiens; NCl-H23 cell line
Description: as §1

SF-295 = assay: NCI60 panel growth inhibition; format: cell-based; details: Homo sapiens; SF-295 cell line
Description: as §1

HCT-15 = assay: NCI60 panel growth inhibition; format: cell-based; details: Homo sapiens; HCT-15 cell line
Description: as §1

HOP-62 = assay: NCI60 panel growth inhibition; format: cell-based; details: Homo sapiens; HOP-62 cell line
Description: as §1

HS 578T = assay: NCI60 panel growth inhibition; format: cell-based; details: Homo sapiens; HS 578T cell line
Description: as §1

MCF7 = assay: NCI60 panel growth inhibition; format: cell-based; details: Homo sapiens; MCF7 cell line
Description: as §1

OVCAR-5 = assay: NCI60 panel growth inhibition; format: cell-based; details: Homo sapiens; OVCAR-5 cell line
Description: as §1

SK-OV-3 = assay: NCI60 panel growth inhibition; format: cell-based; details: Homo sapiens; SK-OV-3 cell line
Description: as §1

SN12C = assay: NCI60 panel growth inhibition; format: cell-based; details: Homo sapiens; SN12C cell line
Description: as §1

MALME-3M = assay: NCI60 panel growth inhibition; format: cell-based; details: Homo sapiens; MALME-3M cell line
Description: as §1

NCl-H460 = assay: NCI60 panel growth inhibition; format: cell-based; details: Homo sapiens; NCl-H460 cell line
Description: as §1

MDA-MB-231/ATCC = assay: NCI60 panel growth inhibition; format: cell-based; details: Homo sapiens; MDA-MB-231/ATCC cell line
Description: as §1

SF-539 = assay: NCI60 panel growth inhibition; format: cell-based; details: Homo sapiens; SF-539 cell line
Description: as §1

A549/ATCC = assay: NCI60 panel growth inhibition; format: cell-based; details: Homo sapiens; A549/ATCC cell line
Description: as §1

SW-620 = assay: NCI60 panel growth inhibition; format: cell-based; details: Homo sapiens; SW-620 cell line
Description: as §1

OVCAR-8 = assay: NCI60 panel growth inhibition; format: cell-based; details: Homo sapiens; OVCAR-8 cell line
Description: as §1

MOLT-4 = assay: NCI60 panel growth inhibition; format: cell-based; details: Homo sapiens; MOLT-4 cell line
Description: as §1

SF-268 = assay: NCI60 panel growth inhibition; format: cell-based; details: Homo sapiens; SF-268 cell line
Description: as §1

HOP-92 = assay: NCI60 panel growth inhibition; format: cell-based; details: Homo sapiens; HOP-92 cell line
Description: as §1

NCl/ADR-RES = assay: NCI60 panel growth inhibition; format: cell-based; details: Homo sapiens; NCl/ADR-RES cell line
Description: as §1

HL-60(TB) = assay: NCI60 panel growth inhibition; format: cell-based; details: Homo sapiens; HL-60(TB) cell line
Description: The human tumor cell lines of the cancer screening panel may be grown in RPMI 1640 medium containing 5% fetal bovine serum and 2 mM L-glutamine. Cells may be inoculated into 96 well microtiter plates in 100 μL at plating densities ranging from 5,000 to 40,000 cells/well depending on the doubling time of individual cell lines. After cell inoculation, the microtiter plates may be incubated at 37° C., 5% CO2, 95% air and 100% relative humidity for 24 hours prior to addition of experimental compounds. After 24 hours, two plates of each cell line may be fixed in situ with TCA, to represent a measurement of the cell population for each cell line at the time of compound addition (Tz). Experimental compounds may be solubilized in dimethyl sulfoxide at 400-fold the desired final maximum test concentration and stored frozen prior to use. […] Bound stain may be subsequently solubilized with 10 mM trizma base, and the absorbance may be read on an automated plate reader at a wavelength of 515 nm. […] Using the seven absorbance measurements [time zero, (Tz), control growth, (C), and test growth in the presence of compound (e.g., dovitinib or a pharmaceutically acceptable salt thereof) at the five concentration levels (Ti)], the percentage growth may be calculated at each of the compound concentrations levels. […] The compound concentration resulting in total growth inhibition (TGI) is calculated from Ti=Tz. […]

[1] = tested on: patients with RCC, GIST, endometrial cancer, HCC or breast cancer; assay: Clinical response rate as a function of DRP cutoff, all five cohorts of Examples 2-6; format: in vivo, human
Description: Gene expression data (Affymetrix) and clinical response data was obtained from 73 patients in the dovitinib arm. The DRP was applied to calculate a score for each patient (mean of genes in Table 2 minus mean of genes in Table 3). The score for each patient was compared to a reference population with the same diagnosis. For the reference population the dovitinib and sorafenib arms were combined (N=148). This allowed the calculation of a percentile score for each patient. Patients were grouped according to RECIST v1.1 response (centrally assessed) and included in FIG. 1.
Gene expression data (Affymetrix) and clinical response data was obtained from 14 patients. The DRP was applied to calculate a score for each patient (mean of genes in Table 2 minus mean of genes in Table 3). The score for each patient was compared to a reference population with the same diagnosis. For the reference population public data sets were downloaded from the GEO database (GSE20708, GSE17743, GSE8167, N=83). This allowed the calculation of a percentile score for each patient. Patients were grouped according to RECIST v1.1 response (locally assessed, no central assessment) and included in FIG. 1.
Gene expression data (Affymetrix) and clinical response data was obtained from 29 patients. The DRP was applied to calculate a score for each patient (mean of genes in Table 2 minus mean of genes in Table 3). The score for each patient was compared to a reference population with the same diagnosis. For the reference population a public data set was downloaded from the GEO database (GSE17025, N=91). This allowed the calculation of a percentile score for each patient. Patients were grouped according to RECIST v1.1 response (central assessment) and included in FIG. 1.
Gene expression data (Affymetrix) and clinical response data was obtained from 6 patients in the dovitinib arm. The DRP was applied to calculate a score for each patient (mean of genes in Table 2 minus mean of genes in Table 3). The score for each patient was compared to a reference population with the same diagnosis. […]

## CN1CCN(c2ccc3nc(-c4c(N)c5c(F)cccc5[nH]c4=O)[nH]c3c2)CC1 [dovitinib, 4-amino-5-fluoro-3-[6-(4-methylpiperazin-1-yl)-1H-benzimidazol-2-yl]-1H-quinolin-2-one]
NCl-H322M
  GI50: 759 nM
IGROV1
  GI50: 251 nM
UACC-257
  GI50: 3390 nM
K-562
  GI50: 550 nM
DU-145
  GI50: 1150 nM
786-0
  GI50: 724 nM
CCRF-CEM
  GI50: 589 nM
LOX IMVI
  GI50: 871 nM
RPMI-8226
  GI50: 1480 nM
SK-MEL-28
  GI50: 1480 nM
NCl-H522
  GI50: 3160 nM
SNB-75
  GI50: 977 nM
UACC-62
  GI50: 3630 nM
SK-MEL-2
  GI50: 891 nM
MDA-MB-435
  GI50: 1070 nM
HCT-116
  GI50: 417 nM
RXF 393
  GI50: 219 nM
U251
  GI50: 550 nM
CAKI-1
  GI50: 468 nM
NCl-H226
  GI50: 355 nM
ACHN
  GI50: 331 nM
KM12
  GI50: 41.7 nM
HT29
  GI50: 1410 nM
SK-MEL-5
  GI50: 1780 nM
SR
  GI50: 447 nM
TK-10
  GI50: 7760 nM
M14
  GI50: 389 nM
OVCAR-3
  GI50: 6760 nM
COLO 205
  GI50: 2240 nM
A498
  GI50: 135 nM
T-47D
  GI50: 10000 nM
HCC-2998
  GI50: 1320 nM
BT-549
  GI50: 1050 nM
UO-31
  GI50: 219 nM
OVCAR-4
  GI50: 575 nM
SNB-19
  GI50: 2630 nM
PC-3
  GI50: 1120 nM
MDA-MB-468
  GI50: 2570 nM
EKVX
  GI50: 7590 nM
NCl-H23
  GI50: 2450 nM
SF-295
  GI50: 6030 nM
HCT-15
  GI50: 427 nM
HOP-62
  GI50: 1450 nM
HS 578T
  GI50: 977 nM
MCF7
  GI50: 1170 nM
OVCAR-5
  GI50: 1780 nM
SK-OV-3
  GI50: 513 nM
SN12C
  GI50: 676 nM
MALME-3M
  GI50: 490 nM
NCl-H460
  GI50: 468 nM
MDA-MB-231/ATCC
  GI50: 2340 nM
SF-539
  GI50: 427 nM
A549/ATCC
  GI50: 562 nM
SW-620
  GI50: 550 nM
OVCAR-8
  GI50: 1450 nM
MOLT-4
  GI50: 331 nM
SF-268
  GI50: 2190 nM
HOP-92
  GI50: 355 nM
NCl/ADR-RES
  GI50: 2690 nM
HL-60(TB)
  GI50: 1070 nM
[1]; all five cohorts from Examples 2-6, patients at DRP cutoff of 50
  overall response rate (ORR=CR+PR): 26%
[1]; all five cohorts from Examples 2-6, patients at DRP cutoff of 80
  overall response rate (ORR=CR+PR): 35%
[1]; all five cohorts from Examples 2-6, without the DRP (breast cohort received dovitinib plus fulvestrant)
  average overall response rate (ORR=CR+PR): 16%
